Here are results for 6 molecules from article PMC10687260, “1,3-Diphenylureido hydroxamate as a promising scaffold for generation of potent antimalarial histone deacetylase inhibitors” (Scientific Reports, 2023).

In one data set the test system is P. falciparum 3D7. Kind of data set: Antiplasmodial SYBR Green I proliferation assay, P. falciparum 3D7. Format: cell-based, Plasmodium falciparum. The note with it: Plasmodium falciparum, 3D7, 96 h, 96 h; values in brackets 95% confidence intervals; read-out: IC50 Pf3D7. The gist of the method:
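SYBR Green I DNA-content proliferation assay on P. falciparum 3D7 and Dd2 in human O+ erythrocytes. Fluorescence after 1 h lysis with 0.02% SYBR Green I, scaled 0–100% against untreated parasites; curves by non-linear regression on means of three independent triplicate experiments.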

In the next data set the target is T1, HDAC8 (Homo sapiens, UniProt Q9BY41).
T1 construct: made in house
T1 sequence (Q9BY41 1-377): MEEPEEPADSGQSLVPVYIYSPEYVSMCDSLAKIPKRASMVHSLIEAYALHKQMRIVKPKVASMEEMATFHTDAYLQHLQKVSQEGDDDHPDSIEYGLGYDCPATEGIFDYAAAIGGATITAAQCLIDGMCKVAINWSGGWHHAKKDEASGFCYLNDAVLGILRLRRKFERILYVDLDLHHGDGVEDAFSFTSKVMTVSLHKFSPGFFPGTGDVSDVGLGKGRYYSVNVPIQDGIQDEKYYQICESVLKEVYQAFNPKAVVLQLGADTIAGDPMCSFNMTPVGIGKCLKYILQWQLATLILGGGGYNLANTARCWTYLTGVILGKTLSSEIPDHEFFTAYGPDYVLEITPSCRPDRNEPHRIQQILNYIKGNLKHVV
Kind of data set: In vitro HDAC enzymatic assay, HDAC8. It counts as biochemical. The note with it: mean ± SD. As for the experimental part: In vitro HDAC enzymatic assays. Recombinant human HDAC1 and HDAC6 were purchased from ENZO Life Sciences AG (Lausen, CH) whereas HDAC8 was produced as described before. In vitro testing of the inhibitors in an enzymatic assay was carried out as described in previous publications[32],[33]. For HDAC1 a fluorogenic peptide derived from p53 (Ac-RHKK(Acetyl)-AMC) was used. For HDAC6, the substrate (Abz-SRGGK(thio-TFA)FFRR-NH2) was used as described before.

A further data set deals with T2, PfHDAC1 (Plasmodium falciparum, UniProt Q7K6A1).
T2 construct: purchased BPS Bioscience (San Diego, CA)
T2 sequence (Q7K6A1 1-449): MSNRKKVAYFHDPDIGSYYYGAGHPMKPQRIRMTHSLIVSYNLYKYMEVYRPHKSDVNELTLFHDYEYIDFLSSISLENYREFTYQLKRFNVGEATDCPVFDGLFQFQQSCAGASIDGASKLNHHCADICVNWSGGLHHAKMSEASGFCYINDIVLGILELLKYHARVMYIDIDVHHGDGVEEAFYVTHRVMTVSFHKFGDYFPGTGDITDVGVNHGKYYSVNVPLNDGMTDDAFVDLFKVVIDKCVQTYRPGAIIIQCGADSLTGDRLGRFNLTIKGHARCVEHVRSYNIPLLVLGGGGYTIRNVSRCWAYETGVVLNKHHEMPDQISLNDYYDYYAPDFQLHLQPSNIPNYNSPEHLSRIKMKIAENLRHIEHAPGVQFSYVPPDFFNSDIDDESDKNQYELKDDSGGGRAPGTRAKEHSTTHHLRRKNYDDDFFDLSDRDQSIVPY
Kind of data set: In vitro PfHDAC1 enzymatic assay. Format: biochemical. The note with it: for inhibition at 1 µM / inhibition at 10 µM: recombinant PfHDAC1. Here is the method:
In vitro PfHDAC1 enzymatic assay. PfHDAC inhibition assays were performed by BPS Bioscience (San Diego, CA). […] Then, each DMSO solution was directly diluted 10 × fold into the HDAC assay buffer for an intermediate dilution of 10% DMSO in HDAC assay buffer. Then, 5 µL of the intermediate dilution was added to a 50 µL reaction so that the final concentration of DMSO is 1% in all the reactions. […] Fluorescence intensity was measured at an excitation of 360 nm and an emission of 460 nm using a Tecan Infinite M1000 microplate reader. […] The fluorescent intensity data were analyzed using GraphPad Prism (v9.5.2). In the absence of the compound, the fluorescent intensity (Ft) in each data set was defined as 100% activity. In the absence of HDAC, the fluorescent intensity (Fb) in each data set was defined as 0% activity. The percent activity in the presence of each compound was calculated according to the following equation: % activity = (F-Fb)/(Ft-Fb), where “F” is the fluorescent intensity in the presence of the compound.

For `COc1ccc(NC(=O)Nc2ccc(/C=C/C(=O)NO)cc2)cc1` [Compound 6c, (E)-N-hydroxi-3-(4-(3-(4-methoxyphenyl)ureido)phenyl)acrylamide], the melting point was 210 °C (dec.). The IC50 in the data set on P. falciparum 3D7 stood at 1030 nM. Moreover, at HDAC8, the midpoint of inhibition, the IC50, lay at 63.7 ± 4.2 nM. At PfHDAC1, the inhibition at 1 µM stood at 69% and the inhibition at 10 µM was determined as 82%. The remaining activity at 1 µM on PfHDAC1 (1 µM, read-out: PfHDAC1 residual activity) was 26%.
`COc1ccc(NC(=O)Nc2ccc(CCC(=O)NO)cc2)cc1` [Compound 7c, N-hydroxy-3-(4-(3-(4-methoxyphenyl)ureido)phenyl)propanamide] came in with a melting point of 202 to 204 °C. In the data set on P. falciparum 3D7, the IC50 was found to be 5820 nM. This molecule showed an IC50 against HDAC8 of 362 ± 22.7 nM. Further, on PfHDAC1, the inhibition at 1 µM is approximately 50% and the inhibition at 10 µM was 88%.
`O=C(Nc1ccccc1)Nc1ccc(C(=O)NO)cc1` [Compound 8a, N-hydroxy-4-(3-phenylureido)bezamide]: the melting point is 304 °C (dec.). In addition, in the data set on P. falciparum 3D7, the IC50 is 560 nM. Moreover, the IC50 at HDAC8 was 93.5 ± 5.3 nM.
For the molecule `O=C(Nc1ccc(Cl)cc1)Nc1ccc(C(=O)NO)cc1` [Compound 8b, 4-(3-(4-chlorophenyl)ureido)-N-hydroxybenzamide], the melting point was 357 °C (dec.). The IC50 with P. falciparum 3D7 stood at 1310 nM. Further, the IC50 against HDAC8 is 85.1 ± 9.6 nM.
On to `COc1ccc(NC(=O)Nc2ccc(C(=O)NO)cc2)cc1` [Compound 8c, N-hydroxy-4-(3–4(-methoxyphenyl)ureido)benzamide], for which the values for the IC50 with P. falciparum 3D7 and against HDAC8 were 740 nM and 136 ± 8.2 nM, respectively. The inhibition at 1 µM on PfHDAC1 was approximately 50%.
On to `O=C(Nc1ccc(C(=O)NO)cc1)Nc1ccc([N+](=O)[O-])cc1` [Compound 8d, N-hydroxy-4-(3-(4-nitrophenyl)ureido)benzamide], for which the melting point is 312 °C (dec.). In addition, the IC50 in the data set with P. falciparum 3D7 came to 550 nM. Inhibition against HDAC8 was half-maximal at 68.1 ± 6.8 nM (IC50).

By IC50 is commonly meant the concentration that inhibits the measured activity by half. The term melting point denotes the temperature of the solid-liquid transition. As usually defined, the inhibition is the percentage by which the read-out fell short of the control.
